From ChEMBL document CHEMBL1134249, “The identification and characterization of hydrazinyl urea-based antibacterial agents through combinatorial chemistry” (Bioorg Med Chem Lett, 2001)
Values after ≈ are worked out from the molar mass of the structure shown.

Tests used:
Bacteria = test: Minimum inhibitory concentration required against six gram-positive organisms (G+6); type: functional
Staphylococcus aureus = test: Inhibitory concentration required against cell wall synthesis in Staphylococcus aureus (MI246); type: functional, organism-based
[1] = Solubility at pH 7.4; type: physicochemical; conditions: buffer

| Structure (SMILES) | MIC (Bacteria) | IC50 (Staphylococcus aureus) | solubility [1] |
| --- | --- | --- | --- |
| O=C(NNc1nccc(C(F)(F)F)n1)Nc1cc(C(F)(F)F)cc(C(F)(F)F)c1 | 4 µM (≈ 1.73 µg/mL) | 47 µM | 2 µg/mL (≈ 4.62 µM) |
| O=C(Nc1cc(C(F)(F)F)cc(C(F)(F)F)c1)NN1CCOCC1 | 68 µM (≈ 24.3 µg/mL) | 135 µM | 5 µg/mL (≈ 14 µM) |
| O=C(Nc1cc(C(F)(F)F)cc(C(F)(F)F)c1)Nn1cnnc1 | 198 µM (≈ 67.2 µg/mL) | 236 µM | 53 µg/mL (≈ 156 µM) |
| O=C(NNC(=O)Nc1cc(C(F)(F)F)cc(C(F)(F)F)c1)Nc1cc(C(F)(F)F)cc(C(F)(F)F)c1 | 3 µM (≈ 1.63 µg/mL) | 17 µM | < 0.5 µg/mL |
| O=C(NNC(=O)Nc1cc(C(F)(F)F)cc(C(F)(F)F)c1)Nc1ccc(C(F)(F)F)cc1 | 2 µM (≈ 0.949 µg/mL) | 145 µM | – |
| O=C(Nc1cc(C(F)(F)F)cc(C(F)(F)F)c1)NN1CCN(CCO)CC1 | > 300 µM | 167 µM | – |
| CC(C)c1nc2ccccc2c(=O)n1NC(=O)Nc1ccc(C(F)(F)F)cc1 | 10 µM (≈ 3.9 µg/mL) | 44 µM | 6 µg/mL (≈ 15.4 µM) |
| CCc1nc2ccccc2c(=O)n1NC(=O)Nc1cc(C(F)(F)F)cc(C(F)(F)F)c1 | 7 µM (≈ 3.11 µg/mL) | 36 µM | 59 µg/mL (≈ 133 µM) |
| CC(C)c1nc2ccccc2c(=O)n1NC(=O)Nc1cc(C(F)(F)F)cc(C(F)(F)F)c1 | 1.5 µM (≈ 0.688 µg/mL) | 66 µM | 3 µg/mL (≈ 6.55 µM) |
| CN[C@H](CC(C)C)C(=O)N[C@H]1C(=O)N[C@@H](CC(N)=O)C(=O)N[C@H]2C(=O)N[C@H]3C(=O)N[C@H](C(=O)N[C@H](C(=O)O)c4cc(O)cc(O)c4-c4cc3ccc4O)[C@H](O)c3ccc(c(Cl)c3)Oc3cc2cc(c3O[C@@H]2O[C@H](CO)[C@@H](O)[C@H](O)[C@H]2O[C@H]2C[C@](C)(N)[C@H](O)[C@H](C)O2)Oc2ccc(cc2Cl)[C@H]1O [VANCOMYCIN] | 0.3 µM (≈ 0.435 µg/mL) | 0.4 µM | – |
